Experimental data: PubChem BioAssay (NCI)
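Cultured in 96-well plates, cells were exposed to test compound for 48 hours across five concentrations. Abbreviation: GI50, concentration required for 50% inhibition of growth. TGI: total growth inhibition.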

What was measured:
Experiment in all cases: NCI anticancer screen, dose series, 48 h
SNB-75 CNS = tested on: SNB-75 CNS
A498 renal = tested on: A498 renal
ACHN renal = tested on: ACHN renal
HCT-116 colon = tested on: HCT-116 colon
M14 melanoma = tested on: M14 melanoma
NCI-H226 lung = tested on: NCI-H226 lung
CCRF-CEM leukemia = tested on: CCRF-CEM leukemia
SF-268 CNS = tested on: SF-268 CNS
OVCAR-3 ovarian = tested on: OVCAR-3 ovarian
HL-60(TB) leukemia = tested on: HL-60(TB) leukemia
SNB-19 CNS = tested on: SNB-19 CNS
HOP-92 NSCLC = tested on: HOP-92 NSCLC
MALME-3M melanoma = tested on: MALME-3M melanoma
NCI-H522 lung = tested on: NCI-H522 lung
MDA-MB-231 breast = tested on: MDA-MB-231 breast
NCI-H23 lung = tested on: NCI-H23 lung
UO-31 renal = tested on: UO-31 renal
HCT-15 colon = tested on: HCT-15 colon
SF-539 CNS = tested on: SF-539 CNS
SN12C renal = tested on: SN12C renal
IGROV1 ovarian = tested on: IGROV1 ovarian
MDA-MB-468 breast = tested on: MDA-MB-468 breast
786-0 renal = tested on: 786-0 renal
SK-MEL-2 melanoma = tested on: SK-MEL-2 melanoma
PC-3 prostate = tested on: PC-3 prostate
MCF7 breast = tested on: MCF7 breast
SW-620 colon = tested on: SW-620 colon
RPMI-8226 leukemia = tested on: RPMI-8226 leukemia
DU-145 prostate = tested on: DU-145 prostate
NCI/ADR-RES ovarian = tested on: NCI/ADR-RES ovarian
SF-295 CNS = tested on: SF-295 CNS
U251 CNS = tested on: U251 CNS
MOLT-4 leukemia = tested on: MOLT-4 leukemia
TK-10 renal = tested on: TK-10 renal
BT-549 breast = tested on: BT-549 breast
A549 NSCLC = tested on: A549 NSCLC
LOX IMVI melanoma = tested on: LOX IMVI melanoma
NCI-H460 lung = tested on: NCI-H460 lung
HOP-62 NSCLC = tested on: HOP-62 NSCLC
HS 578T breast = tested on: HS 578T breast
UACC-257 melanoma = tested on: UACC-257 melanoma
SK-OV-3 ovarian = tested on: SK-OV-3 ovarian
K-562 leukemia = tested on: K-562 leukemia
OVCAR-8 ovarian = tested on: OVCAR-8 ovarian
EKVX NSCLC = tested on: EKVX NSCLC
UACC-62 melanoma = tested on: UACC-62 melanoma
SK-MEL-5 melanoma = tested on: SK-MEL-5 melanoma
MDA-MB-435 = tested on: MDA-MB-435
OVCAR-5 ovarian = tested on: OVCAR-5 ovarian
OVCAR-4 ovarian = tested on: OVCAR-4 ovarian
CAKI-1 renal = tested on: CAKI-1 renal
COLO 205 colon = tested on: COLO 205 colon
HT29 colon = tested on: HT29 colon
SR leukemia = tested on: SR leukemia
KM12 colon = tested on: KM12 colon
SK-MEL-28 melanoma = tested on: SK-MEL-28 melanoma
T-47D breast = tested on: T-47D breast
HCC-2998 colon = tested on: HCC-2998 colon

SMILES: COC(=O)CCn1c(-c2ccc(-n3cc(-c4ccc(O[C@H]5O[C@@H]6OC7(C)CC[C@H]8[C@H](C)CC[C@@H]([C@H]5C)[C@@]68OO7)cc4)nn3)cc2)nc2ccccc21
- GI50 (SNB-75 CNS): 257 nM
- TGI (SNB-75 CNS): > 9250 nM
- GI50 (A498 renal): 5400 nM
- TGI (A498 renal): > 9250 nM
- GI50 (ACHN renal): 262 nM
- TGI (ACHN renal): 1360 nM
- GI50 (HCT-116 colon): 34.3 nM
- TGI (HCT-116 colon): > 9250 nM
- GI50 (M14 melanoma): 360 nM
- TGI (M14 melanoma): > 9250 nM
- GI50 (NCI-H226 lung): 163 nM
- TGI (NCI-H226 lung): 2300 nM
- GI50 (CCRF-CEM leukemia): 51.7 nM
- TGI (CCRF-CEM leukemia): > 9250 nM
- GI50 (SF-268 CNS): 242 nM
- TGI (SF-268 CNS): > 9250 nM
- GI50 (OVCAR-3 ovarian): 100 nM
- TGI (OVCAR-3 ovarian): > 9250 nM
- GI50 (HL-60(TB) leukemia): 98.4 nM
- TGI (HL-60(TB) leukemia): 572 nM
- GI50 (SNB-19 CNS): 274 nM
- TGI (SNB-19 CNS): > 9250 nM
- GI50 (HOP-92 NSCLC): 128 nM
- TGI (HOP-92 NSCLC): 765 nM
- GI50 (MALME-3M melanoma): 175 nM
- TGI (MALME-3M melanoma): 5420 nM
- GI50 (NCI-H522 lung): 97.6 nM
- TGI (NCI-H522 lung): 1290 nM
- GI50 (MDA-MB-231 breast): 208 nM
- TGI (MDA-MB-231 breast): 2420 nM
- GI50 (NCI-H23 lung): 65.5 nM
- TGI (NCI-H23 lung): 6490 nM
- GI50 (UO-31 renal): 194 nM
- TGI (UO-31 renal): 1050 nM
- GI50 (HCT-15 colon): 37.6 nM
- TGI (HCT-15 colon): > 9250 nM
- GI50 (SF-539 CNS): 197 nM
- TGI (SF-539 CNS): > 9250 nM
- GI50 (SN12C renal): 189 nM
- TGI (SN12C renal): > 9250 nM
- GI50 (IGROV1 ovarian): 257 nM
- TGI (IGROV1 ovarian): > 9250 nM
- GI50 (MDA-MB-468 breast): 177 nM
- TGI (MDA-MB-468 breast): 588 nM
- GI50 (786-0 renal): 330 nM
- TGI (786-0 renal): > 9250 nM
- GI50 (SK-MEL-2 melanoma): 238 nM
- TGI (SK-MEL-2 melanoma): 812 nM
- GI50 (PC-3 prostate): 40 nM
- TGI (PC-3 prostate): > 9250 nM
- GI50 (MCF7 breast): 40.9 nM
- TGI (MCF7 breast): > 9250 nM
- GI50 (SW-620 colon): 43.8 nM
- TGI (SW-620 colon): > 9250 nM
- GI50 (RPMI-8226 leukemia): 42.7 nM
- TGI (RPMI-8226 leukemia): 5120 nM
- GI50 (DU-145 prostate): 485 nM
- TGI (DU-145 prostate): > 9250 nM
- GI50 (NCI/ADR-RES ovarian): 307 nM
- TGI (NCI/ADR-RES ovarian): > 9250 nM
- GI50 (SF-295 CNS): 223 nM
- TGI (SF-295 CNS): > 9250 nM
- GI50 (U251 CNS): 61 nM
- TGI (U251 CNS): > 9250 nM
- GI50 (MOLT-4 leukemia): 37.7 nM
- TGI (MOLT-4 leukemia): 1620 nM
- GI50 (TK-10 renal): 386 nM
- TGI (TK-10 renal): > 9250 nM
- GI50 (BT-549 breast): 127 nM
- TGI (BT-549 breast): 693 nM
- GI50 (A549 NSCLC): 277 nM
- TGI (A549 NSCLC): > 9250 nM
- GI50 (LOX IMVI melanoma): 37.1 nM
- TGI (LOX IMVI melanoma): 158 nM
- GI50 (NCI-H460 lung): 274 nM
- TGI (NCI-H460 lung): > 9250 nM
- GI50 (HOP-62 NSCLC): 558 nM
- TGI (HOP-62 NSCLC): > 9250 nM
- GI50 (HS 578T breast): 205 nM
- TGI (HS 578T breast): 5570 nM
- GI50 (UACC-257 melanoma): 276 nM
- TGI (UACC-257 melanoma): > 9250 nM
- GI50 (SK-OV-3 ovarian): 640 nM
- TGI (SK-OV-3 ovarian): > 9250 nM
- GI50 (K-562 leukemia): 38.8 nM
- TGI (K-562 leukemia): > 9250 nM
- GI50 (OVCAR-8 ovarian): 128 nM
- TGI (OVCAR-8 ovarian): > 9250 nM
- GI50 (EKVX NSCLC): 150 nM
- TGI (EKVX NSCLC): > 9250 nM
- GI50 (UACC-62 melanoma): 135 nM
- TGI (UACC-62 melanoma): 1970 nM
- GI50 (SK-MEL-5 melanoma): 216 nM
- TGI (SK-MEL-5 melanoma): 1130 nM
- GI50 (MDA-MB-435): 78 nM
- TGI (MDA-MB-435): > 9250 nM
- GI50 (OVCAR-5 ovarian): 134 nM
- TGI (OVCAR-5 ovarian): > 9250 nM
- GI50 (OVCAR-4 ovarian): 155 nM
- TGI (OVCAR-4 ovarian): > 9250 nM
- GI50 (CAKI-1 renal): 333 nM
- TGI (CAKI-1 renal): > 9250 nM
- GI50 (COLO 205 colon): 68.5 nM
- TGI (COLO 205 colon): > 9250 nM
- GI50 (HT29 colon): 75.3 nM
- TGI (HT29 colon): > 9250 nM
- GI50 (SR leukemia): 40.2 nM
- TGI (SR leukemia): 1140 nM
- GI50 (KM12 colon): 52.5 nM
- TGI (KM12 colon): > 9250 nM
- GI50 (SK-MEL-28 melanoma): 148 nM
- TGI (SK-MEL-28 melanoma): > 9250 nM
- GI50 (T-47D breast): 37.4 nM
- TGI (T-47D breast): > 9250 nM
- GI50 (HCC-2998 colon): 319 nM
- TGI (HCC-2998 colon): > 9250 nM
